Results from PMC6572114, “Synthesis, Docking and Biological Evaluation of a Novel Class of Imidazothiazoles as IDO1 Inhibitors” (Molecules, 2019).
Like-named read-outs stand apart in the source and are kept apart here.

Experiments:
[1] = target: T1, purified recombinant human IDO1 (rhIDO1) (Homo sapiens, UniProt P14902); conditions: cited from earlier work
T1 construct: purchased Origene

[2] = target: T1, purified recombinant human IDO1 (rhIDO1); assay: rhIDO1 enzymatic assay (conversion of L-Trp to L-KYN, p-dimethylaminobenzaldehyde readout); assay type: biochemical; conditions: for inhibition at 1 µM: rhIDO1, compound 1 µM, mean ± SE of two independent experiments; for IC50: rhIDO1, concentration-response curves, at least three experiments in triplicate
Description: All the 22 synthesized compounds were then biologically evaluated (Table 1). The compounds were tested for their ability to inhibit human IDO1 in an enzyme-based assay using a purified recombinant human IDO1 (rhIDO1) enzyme (Table 1). Each compound (1 µM) was added to the reaction buffer and the rhIDO1 conversion of L-Trp to L-KYN was determined spectrophotometrically using p-dimethylaminobenzaldehyde. As reference, imidazothiazole compound 1-((3-(4-bromophenyl)-3aH-thieno [2,3-b]pyrrol-4-yl)methyl)-3-(4-cyanophenyl)urea, displaying an IC50 value of 0.08 µM, was chosen.
rhIDO1 activity was determined as follows. In brief, the standard reaction mixture (200 μL) contained 50 mM potassium phosphate buffer (KPB) (pH 6.5), 20 mM ascorbic acid (neutralized with NaOH and HCl) (Sigma Aldrich), 100 μg/mL catalase (Sigma Aldrich), 10 μM methylene blue (Alfa Aesar, Heysham, Lancashire, UK), 100 µM L-tryptophan (Sigma Aldrich), 50 nM rhIDO1 (Origene, Bologna, Italy), and dimethyl sulfoxide (DMSO) solution of the compound (4 μL). The reaction was carried out at 37 °C for 60 min and stopped by the addition of 40 μL of 30% (w/v) CCl3COOH. After heating at 50 °C for 15 min, the reaction mixture was centrifuged at 1500× g for 10 min. The supernatant (150 μL) was transferred into a well of a 96-well microplate and mixed with 150 μL of 2% (w/v) p-dimethylaminobenzaldehyde (Ehrlich’s reagent) in acetic acid. The yellow pigment derived from kynurenine was measured at 490 nm using an Ultramark Microplate Imaging System (Bio-Rad, Hercules, CA, USA). IC50 values were calculated from concentration-response curves obtained in at least three different experiments run in triplicate.

[3] = test system: IDO1; parameters: method as in PMID 29398544; conditions: cited from earlier work

T1 sequence (P14902 whole entry): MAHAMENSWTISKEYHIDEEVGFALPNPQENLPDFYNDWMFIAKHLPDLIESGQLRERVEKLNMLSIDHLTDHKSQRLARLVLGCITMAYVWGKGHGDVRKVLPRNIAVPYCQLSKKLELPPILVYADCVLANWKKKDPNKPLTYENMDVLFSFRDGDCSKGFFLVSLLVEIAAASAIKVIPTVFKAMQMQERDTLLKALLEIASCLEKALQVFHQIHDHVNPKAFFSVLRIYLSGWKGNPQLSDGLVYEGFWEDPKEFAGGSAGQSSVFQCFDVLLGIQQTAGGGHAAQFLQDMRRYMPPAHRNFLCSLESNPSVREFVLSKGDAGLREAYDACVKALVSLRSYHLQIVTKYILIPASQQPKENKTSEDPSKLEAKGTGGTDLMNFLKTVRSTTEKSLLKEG

Row | SMILES | melting point | inhibition at 1 µM [2] [%] | other results
1 | N#Cc1ccc(NC(=O)NCC2=CN=C3SC=C(c4ccc(Br)cc4)C23)cc1 (stereo not shown) [1-((3-(4-bromophenyl)-3aH-thieno [2,3-b]pyrrol-4-yl)methyl)-3-(4-cyanophenyl)urea] | – | – | IC50 ([1]; rhIDO1, read-out: IC50 (rhIDO1)): 0.08 µM
2 | Brc1ccc(-c2csc3ncc(Cn4cc(Cc5ccccc5)nn4)n23)cc1 [11a, 5-((4-Benzyl-1H-1,2,3-triazol-1-yl)methyl)-3-(4-bromophenyl)imidazo[2,1-b]thiazole] | 106.5 to 107.5 °C | 30 ± 6.7 | –
3 | Brc1ccc(-c2csc3ncc(Cn4cc(-c5ccccc5)nn4)n23)cc1 [11b, 3-(4-Bromophenyl)-5-((4-phenyl-1H-1,2,3-triazol-1-yl)methyl)imidazo[2,1-b]thiazole] | 199 to 199.5 °C (dec.) | 35 ± 2.7 | –
4 | COc1ccc(-c2cn(Cc3cnc4scc(-c5ccc(Br)cc5)n34)nn2)cc1 [11c, 3-(4-Bromophenyl)-5-((4-(4-methoxyphenyl)-1H-1,2,3-triazol-1-yl)methyl)imidazo[2,1-b]thiazole] | 118 to 119 °C (dec.) | 57 ± 13 | –
5 | Nc1ccc(-c2cn(Cc3cnc4scc(-c5ccc(Br)cc5)n34)nn2)cc1 [11d, 4-(1-((3-(4-Bromophenyl)imidazo[2,1-b]thiazol-5-yl)methyl)-1H-1,2,3-triazol-4-yl)aniline] | 117 to 118 °C (dec.) | 17 ± 1.2 | –
6 | N#Cc1ccc(-c2cn(Cc3cnc4scc(-c5ccc(Br)cc5)n34)nn2)cc1 [11e, 4-(1-((3-(4-Bromophenyl)imidazo[2,1-b]thiazol-5-yl)methyl)-1H-1,2,3-triazol-4-yl)benzonitrile] | 190 to 191 °C (dec.) | 28 ± 1.5 | –
7 | N#CCc1ccc(-c2cn(Cc3cnc4scc(-c5ccc(Br)cc5)n34)nn2)cc1 [11f, 2-(4-(1-((3-(4-Bromophenyl)imidazo[2,1-b]thiazol-5-yl)methyl)-1H-1,2,3-triazol-4-yl)phenyl)acetonitrile] | 121.5 to 122.5 °C | 74 ± 5.8 | IC50 [2]: 0.5 ± 0.04 µM
8 | Brc1ccc(-c2csc3ncc(Cn4cc(C5CC5)nn4)n23)cc1 [11g, 3-(4-Bromophenyl)-5-((4-cyclopropyl-1H-1,2,3-triazol-1-yl)methyl)imidazo[2,1-b]thiazole] | 145.5 to 146.5 °C | 61 ± 7.1 | –
9 | OC1(c2cn(Cc3cnc4scc(-c5ccc(Br)cc5)n34)nn2)CCCCC1 [11h, 1-(1-((3-(4-Bromophenyl)imidazo[2,1-b]thiazol-5-yl)methyl)-1H-1,2,3-triazol-4-yl)cyclohexanol] | 163.5 to 164.5 °C (dec.) | 35 ± 2.4 | –
10 | OCCCc1cn(Cc2cnc3scc(-c4ccc(Br)cc4)n23)nn1 [11i, 3-(1-((3-(4-Bromophenyl)imidazo[2,1-b]thiazol-5-yl)methyl)-1H-1,2,3-triazol-4-yl)propan-1-ol] | – | 0 | –
11 | O=C(O)CCc1cn(Cc2cnc3scc(-c4ccc(Br)cc4)n23)nn1 [11j, 3-(1-((3-(4-Bromophenyl)imidazo[2,1-b]thiazol-5-yl)methyl)-1H-1,2,3-triazol-4-yl)propanoic acid] | 148 to 148.5 °C (dec.) | 81 ± 7.9 | IC50 [2]: 1.1 ± 0.07 µM
12 | N#CCCCCc1cn(Cc2cnc3scc(-c4ccc(Br)cc4)n23)nn1 [11k, 5-(1-((3-(4-Bromophenyl)imidazo[2,1-b]thiazol-5-yl)methyl)-1H-1,2,3-triazol-4-yl)pentanenitrile] | – | 62 ± 5.6 | –
13 | O=C(COC(=O)Cc1ccc(O)cc1)NCc1cnc2scc(-c3ccc(Br)cc3)n12 [compound 2] | – | – | ability to permeate the cell and inhibit IDO1 in a cell-based assay [3]: not able to significantly permeate the cell and to inhibit IDO1 in a cell-based assay
14 | CN(CC(=O)NCc1cnc2scc(-c3ccc(Br)cc3)n12)C(=O)Cc1ccc([N+](=O)[O-])cc1 [compound 3] | – | – | ability to permeate the cell and inhibit IDO1 in a cell-based assay [3]: not able to significantly permeate the cell and to inhibit IDO1 in a cell-based assay; IC50 ([1]; first series, published in 2018, read-out: IC50): 0.8 µM

Continued, in another order:

Row | melting point | inhibition at 1 µM [2] [%] | SMILES | other results
15 | 177 to 177.5 °C | 63 ± 4.3 | O=C(Cn1cc(Cc2ccccc2)nn1)NCc1cnc2scc(-c3ccc(Br)cc3)n12 [12a, 2-(4-Benzyl-1H-1,2,3-triazol-1-yl)-N-((3-(4-bromophenyl)imidazo[2,1-b]thiazol-5-yl)methyl)acetamide] | –
16 | 251.5 to 252.5 °C (dec.) | 61 ± 5.5 | O=C(Cn1cc(-c2ccccc2)nn1)NCc1cnc2scc(-c3ccc(Br)cc3)n12 [12b, N-((3-(4-Bromophenyl)imidazo[2,1-b]thiazol-5-yl)methyl)-2-(4-phenyl-1H-1,2,3-triazol-1-yl)acetamide] | –
17 | 183 to 184 °C | 5 ± 1.2 | COc1ccc(-c2cn(CC(=O)NCc3cnc4scc(-c5ccc(Br)cc5)n34)nn2)cc1 [12c, N-((3-(4-Bromophenyl)imidazo[2,1-b]thiazol-5-yl)methyl)-2-(4-(4-methoxyphenyl)-1H-1,2,3-triazol-1-yl)acetamide] | –
18 | 217 to 218 °C (dec.) | 56 ± 4.7 | Nc1ccc(-c2cn(CC(=O)NCc3cnc4scc(-c5ccc(Br)cc5)n34)nn2)cc1 [12d, 2-(4-(4-Aminophenyl)-1H-1,2,3-triazol-1-yl)-N-((3-(4-bromophenyl)imidazo[2,1-b]thiazol-5-yl)methyl)acetamide] | –
19 | 267 to 267.5 °C (dec.) | 50 ± 4.5 | N#Cc1ccc(-c2cn(CC(=O)NCc3cnc4scc(-c5ccc(Br)cc5)n34)nn2)cc1 [12e, N-((3-(4-Bromophenyl)imidazo[2,1-b]thiazol-5-yl)methyl)-2-(4-(4-cyanophenyl)-1H-1,2,3-triazol-1-yl)acetamide] | –
20 | 231 to 231.5 °C | 55 ± 7.2 | N#CCc1ccc(-c2cn(CC(=O)NCc3cnc4scc(-c5ccc(Br)cc5)n34)nn2)cc1 [12f, N-((3-(4-Bromophenyl)imidazo[2,1-b]thiazol-5-yl)methyl)-2-(4-(4-(cyanomethyl)phenyl)-1H-1,2,3-triazol-1-yl)acetamide] | –
21 | 225 to 225.5 °C (dec.) | 70 ± 9.2 | O=C(Cn1cc(C2CC2)nn1)NCc1cnc2scc(-c3ccc(Br)cc3)n12 [12g, N-((3-(4-Bromophenyl)imidazo[2,1-b]thiazol-5-yl)methyl)-2-(4-cyclopropyl-1H-1,2,3-triazol-1-yl)acetamide] | IC50 [2]: 0.2 ± 0.01 µM
22 | 165 to 166 °C | 63 ± 4.1 | O=C(Cn1cc(C2(O)CCCCC2)nn1)NCc1cnc2scc(-c3ccc(Br)cc3)n12 [12h, N-((3-(4-Bromophenyl)imidazo[2,1-b]thiazol-5-yl)methyl)-2-(4-(1-hydroxycyclohexyl)-1H-1,2,3-triazol-1-yl)acetamide] | –
23 | 169 to 170 °C (dec.) | 45 ± 2.8 | O=C(Cn1cc(CCCO)nn1)NCc1cnc2scc(-c3ccc(Br)cc3)n12 [12i, N-((3-(4-Bromophenyl)imidazo[2,1-b]thiazol-5-yl)methyl)-2-(4-(3-hydroxypropyl)-1H-1,2,3-triazol-1-yl)acetamide] | –
24 | 153 to 154 °C (dec.) | 33 ± 4.5 | O=C(O)CCc1cn(CC(=O)NCc2cnc3scc(-c4ccc(Br)cc4)n23)nn1 [12j, 3-(1-(2-(((3-(4-Bromophenyl)imidazo[2,1-b]thiazol-5-yl)methyl)amino)-2-oxoethyl)-1H-1,2,3-triazol-4-yl)propanoic acid] | –
25 | 179.5 to 180.5 °C | 50 ± 11 | N#CCCCCc1cn(CC(=O)NCc2cnc3scc(-c4ccc(Br)cc4)n23)nn1 [12k, N-((3-(4-Bromophenyl)imidazo[2,1-b]thiazol-5-yl)methyl)-2-(4-(4-cyanobutyl)-1H-1,2,3-triazol-1-yl)acetamide] | –
